# Test results as given in patent US20240228458A1, “PYRIMIDINE DERIVATIVE HAVING PROTEIN KINASE INHIBITORY ACTIVITY, AND THERAPEUTIC PHARMACEUTICAL COMPOSITION COMPRISING SAME” (THERAPEX CO., LTD., priority 2021, published 2024).
# Columns and labels:
# Type in all cases: cell-based
# [1] = test system: Ba/F3 cells expressing del19/T790M/C797S (EGFR-DTC); assay: Growth inhibition (GI50) of Ba/F3 cells expressing del19/T790M/C797S (EGFR-DTC), Celltiter glo; conditions: Mus musculus, BaF3, 72 h
# Description: (§1) In this experimental example, a determination was made as to whether the compounds prepared in Examples 1-283 have the ability to inhibit the growth of Ba/F3 cells expressing EGFR-wt, del19/T790M/C797S (EGFR-DTC), L858R/T790M/C797S (EGFR-LTC), del19/T790M (EGFR-DT), and L858R/T790M (EGFR-LT) variants.
# (§2) The parental Ba/F3 cell line is a population of cells that are not introduced with EGFR variants. Specifically, 100 μl of a cell line expressing each variant was plated in a 96-well plate at a density of 100,000 cells/ml. 10-point, 4-fold serial dilutions of each compound were prepared, starting at 2 mM. After 4 h, 0.5 μl of the compound (0.5% DMSO) was added, followed by incubation at 37° C. and 5% CO2 for 72 h. After incubation, the number of viable cells was measured using a Celltiter glo assay kit (Promega) and the GI50 of the compound was determined. The term “GI50” refers to the molar concentration (μM) of the compound required for 50% growth inhibition of cells.
# [2] = test system: Ba/F3 cells expressing EGFR-wt; assay: Growth inhibition (GI50) of Ba/F3 cells expressing EGFR-wt, Celltiter glo; conditions: Mus musculus, BaF3, 72 h
# Description: as §1, §2
# parental Ba/F3 cell line = assay: Growth inhibition (GI50) of the parental Ba/F3 cell line (not introduced with EGFR variants), Celltiter glo; conditions: Mus musculus, BaF3, 72 h, parental Ba/F3 cells
# Description: as §2
# [3] = test system: Ba/F3 cells expressing L858R/T790M/C797S (EGFR-LTC); assay: Growth inhibition (GI50) of Ba/F3 cells expressing L858R/T790M/C797S (EGFR-LTC), Celltiter glo; conditions: Mus musculus, BaF3, 72 h
# Description: as §1, §2
Compound,GI50 [1] [nM],GI50 [2] [nM],GI50 [3] [nM],GI50 (parental Ba/F3 cell line) [nM]
"COc1nc(N2CCOCC2)ccc1Nc1ncc(Br)c(Nc2ccc(F)cc2NS(C)(=O)=O)n1 [Example 29, N-(2-((5-bromo-2-((2-methoxy-6-morpholinopyridin-3-yl)amino)pyrimidin-4-yl)amino)-5-fluorophenyl)methanesulfonamide]",> 10000,> 10000,> 10000,> 10000
"COc1nc(N2CCN(C3CC3)CC2)ccc1Nc1ncc(Br)c(Nc2ccc(F)cc2NS(C)(=O)=O)n1 [Example 30, N-(2-((5-bromo-2-((6-(4-cyclopropylpiperazin-1-yl)-2-methoxypyridin-3-yl)amino)pyrimidin-4-yl)amino)-5-fluorophenyl)methanesulfonamide]",2000 to 10000,> 10000,2000 to 10000,> 10000
"COc1nc(N2CCC(N3CCOCC3)CC2)ccc1Nc1ncc(Br)c(Nc2ccc(F)cc2NS(C)(=O)=O)n1 [Example 31, N-(2-((5-bromo-2-((2-methoxy-6-(4-morpholinopiperidin-1-yl)pyridin-3-yl)amino)pyrimidin-4-yl)amino)-5-fluorophenyl)methanesulfonamide]",500 to 2000,2000 to 10000,2000 to 10000,2000 to 10000
"COc1nc(N2CCC(C)(C)CC2)ccc1Nc1ncc(Br)c(Nc2ccc(F)cc2NS(C)(=O)=O)n1 [Example 32, N-(2-((5-bromo-2-((6-(4,4-dimethylpiperidin-1-yl)-2-methoxypyridin-3-yl)amino)pyrimidin-4-yl)amino)-5-fluorophenyl)methanesulfonamide]",2000 to 10000,2000 to 10000,2000 to 10000,2000 to 10000
"COc1nc(N2CCC(F)(F)CC2)ccc1Nc1ncc(Br)c(Nc2ccc(F)cc2NS(C)(=O)=O)n1 [Example 33, N-(2-((5-Bromo-2-((6-(4,4-difluoropiperidin-1-yl)-2-methoxypyridin-3-yl)amino)pyrimidin-4-yl)amino)-5-fluorophenyl)methanesulfonamide]",2000 to 10000,2000 to 10000,2000 to 10000,2000 to 10000
"CN1CCN(C2CCN(c3nc(Cl)c(Nc4ncc(Br)c(Nc5ccc(F)cc5NS(C)(=O)=O)n4)cc3C(F)(F)F)CC2)CC1 [Example 34, N-(2-((5-bromo-2-((2-chloro-6-(4-(4-methylpiperazin-1-yl)piperidin-1-yl)-5-(trifluoromethyl)pyridin-3-yl)amino)pyrimidin-4-yl)amino)-5-fluorophenyl)methanesulfonamide]",500 to 2000,2000 to 10000,100 to 500,2000 to 10000
"COc1nc(N2CCN(C3CCN(C)CC3)CC2)ccc1Nc1ncc(Br)c(Nc2ccc(F)cc2NS(C)(=O)=O)n1 [Example 36, N-(2-((5-bromo-2-((2-methoxy-6-(4-(1-methylpiperidin-4-yl)piperazin-1-yl)pyridin-3-yl)amino)pyrimidin-4-yl)amino)-5-fluorophenyl)methanesulfonamide]",100 to 500,500 to 2000,100 to 500,2000 to 10000
COc1nc(N2CCN(C3CCN(C)CC3)CC2)c(C(F)(F)F)cc1Nc1ncc(Br)c(Nc2ccc(F)cc2NS(C)(=O)=O)n1 [Example 37],> 10000,> 10000,> 10000,> 10000
"COc1cc(N2CCC(N3CCC(N(C)C)C3)CC2)c(C)cc1Nc1ncc(Br)c(Nc2ccc(F)cc2NS(C)(=O)=O)n1 (stereo not shown) [Example 40, N-(2-((5-bromo-2-((4-(4-(3-(dimethylamino)pyrrolidin-1-yl)piperidin-1-yl)-2-methoxy-5-methylphenyl)amino)pyrimidin-4-yl)amino)-5-fluorophenyl)methanesulfonamide]",25 to 100,500 to 2000,100 to 500,2000 to 10000
"COc1cc(N2CCC(Nc3ccnn3C)CC2)c(C)cc1Nc1ncc(Br)c(Nc2ccc(F)cc2NS(C)(=O)=O)n1 [Example 41, N-(2-((5-bromo-2-((2-methoxy-5-methyl-4-(4-((1-methyl-1H-pyrazol-5-yl)amino)piperidin-1-yl)phenyl)amino)pyrimidin-4-yl)amino)-5-fluorophenyl)methanesulfonamide]",100 to 500,500 to 2000,500 to 2000,2000 to 10000
"COc1cc(N2CCC(N3CCN(C4CC4)CC3)CC2)c(C)cc1Nc1ncc(Br)c(Nc2ccc(F)cc2NS(C)(=O)=O)n1 [Example 42, N-(2-((5-bromo-2-((4-(4-(4-cyclopropylpiperazin-1-yl)piperidin-1-yl)-2-methoxy-5-methylphenyl)amino)pyrimidin-4-yl)amino)-5-fluorophenyl)methanesulfonamide]",25 to 100,500 to 2000,100 to 500,500 to 2000

# Now from value to compound, other results behind:
GI50 [1] [nM],GI50 [2] [nM],GI50 [3] [nM],Compound,GI50 (parental Ba/F3 cell line) [nM]
100 to 500,500 to 2000,100 to 500,"CN1CCN(C2CCN(c3ncc(Nc4ncc(Br)c(Nc5ccc(F)cc5NS(C)(=O)=O)n4)cc3F)CC2)CC1 [Example 25, N-(2-((5-bromo-2-((5-fluoro-6-(4-(4-methylpiperazin-1-yl)piperidin-1-yl)pyridin-3-yl)amino)pyrimidin-4-yl)amino)-5-fluorophenyl)methanesulfonamide]",500 to 2000
25 to 100,100 to 500,25 to 100,"COc1cc(N2CCC(N3CCN(C)CC3)CC2)c(Cl)cc1Nc1ncc(Br)c(Nc2ccc(F)cc2NS(C)(=O)=O)n1 [Example 26, N-(2-((5-bromo-2-((5-chloro-2-methoxy-4-(4-(4-methylpiperazin-1-yl)piperidin-1-yl)phenyl)amino)pyrimidin-4-yl)amino)-5-fluorophenyl)methanesulfonamide]",2000 to 10000
100 to 500,2000 to 10000,500 to 2000,"CN1CCN(C2CCN(c3ccc(Nc4ncc(Br)c(Nc5ccc(F)cc5NS(C)(=O)=O)n4)c(Cl)c3)CC2)CC1 [Example 27, N-(2-((5-bromo-2-((2-chloro-4-(4-(4-methylpiperazin-1-yl)piperidin-1-yl)phenyl)amino)pyrimidin-4-yl)amino)-5-fluorophenyl)methanesulfonamide]",2000 to 10000
500 to 2000,2000 to 10000,500 to 2000,"COc1nc(N2CCC(N3CCN(C)CC3)CC2)ccc1Nc1ncc(Br)c(Nc2ccc(F)cc2NS(C)(=O)=O)n1 [Example 28, N-(2-((5-bromo-2-((2-methoxy-6-(4-(4-methylpiperazin-1-yl)piperidin-1-yl)pyridin-3-yl)amino)pyrimidin-4-yl)amino)-5-fluorophenyl)methanesulfonamide]",2000 to 10000
25 to 100,100 to 500,25 to 100,"CN1CCN(C2CCN(c3ccc4cc(Nc5ncc(Br)c(Nc6ccc(F)cc6NS(C)(=O)=O)n5)ccc4n3)CC2)CC1 [Example 35, N-(2-((5-bromo-2-((2-(4-(4-methylpiperazin-1-yl)piperidin-1-yl)quinolin-6-yl)amino)pyrimidin-4-yl)amino)-5-fluorophenyl)methanesulfonamide]",100 to 500
25 to 100,100 to 500,25 to 100,COc1cc(N2CCC(N3CCN(C)CC3)CC2)c(C)cc1Nc1ncc(Cl)c(Nc2ccccc2CS(C)(=O)=O)n1 [Example 62],500 to 2000
25 to 100,100 to 500,25 to 100,CN1CCN(C2CCN(c3ccc(Nc4ncc(Cl)c(Nc5ccccc5CS(C)(=O)=O)n4)cc3F)CC2)CC1 [Example 63],25 to 100
500 to 2000,2000 to 10000,500 to 2000,COc1nc(N2CCC(N3CCN(C)CC3)CC2)ccc1Nc1ncc(Cl)c(Nc2ccccc2CS(C)(=O)=O)n1 [Example 64],2000 to 10000
100 to 500,500 to 2000,100 to 500,"COc1cc(N2CCC(N3CCN(C)CC3)CC2)c(C)cc1Nc1ncc(Cl)c(Nc2cc(Cl)ccc2NC(C)=O)n1 [Example 65, N-(4-chloro-2-((5-chloro-2-((2-methoxy-5-methyl-4-(4-(4-methylpiperazin-1-yl)piperidin-1-yl)phenyl)amino)pyrimidin-4-yl)amino)phenyl)acetamide]",500 to 2000
500 to 2000,500 to 2000,100 to 500,"COc1nc(N2CCC(N3CCN(C)CC3)CC2)c(C)cc1Nc1ncc(Cl)c(Nc2cc(Cl)ccc2NC(C)=O)n1 [Example 66, N-(4-chloro-2-((5-chloro-2-((2-methoxy-5-methyl-6-(4-(4-methylpiperazin-1-yl)piperidin-1-yl)pyridin-3-yl)amino)pyrimidin-4-yl)amino)phenyl)acetamide]",2000 to 10000
500 to 2000,2000 to 10000,2000 to 10000,"COc1cc(N2CCC(N3CCN(C)CC3)CC2)c(C)cc1Nc1ncc(Cl)c(Nc2ccccc2NC(C)=O)n1 [Example 68, N-(2-((5-chloro-2-((2-methoxy-5-methyl-4-(4-(4-methylpiperazin-1-yl)piperidin-1-yl)phenyl)amino)pyrimidin-4-yl)amino)phenyl)acetamide]",2000 to 10000
